Measured values reported in US20090131519A1 (priority 2005, published 2009).

What was measured:
Fusarium fungi [1] = assay: Field trial, winter wheat "Ritmo", Gronau 2004: natural Fusarium ear infection, DON and NIV content of grains (HPLC/MS), grain yield; assay type: in vivo
mildew = details: pre-treatment; cited from earlier work
Fusarium fungi [2] = assay: Field trial, winter wheat "Slade", Ulhówek (Poland) 2004: natural Fusarium ear infection, DON and ZEA content of grains (HPLC/MS), grain yield; assay type: in vivo; details: for ZEA content of the grains / Infection (ears infected by Fusarium fungi) / Grain yield: dose prohexadione-Ca 50, metconazole 90; for ZEA content of the grains: relative to untreated = 100% (0.073 mg per kg of harvested grains); for Infection (ears infected by Fusarium fungi): relative to untreated = 100% (4.5% of the ears infected), assessed Jul. 22, 2004; for Grain yield: relative to untreated = 100% (8.6 t/ha)
Fusarium graminearum = details: in vivo; cited from earlier work
[3] = test system: Fusarium graminearum (strain 4528); details: cited from earlier work

Row | Compound | ZEA content of the grains (Fusarium fungi [2]; treatment date 10.6.) [%] | Infection (ears infected by Fusarium fungi) (Fusarium fungi [2]; treatment date 10.6.) [%] | Grain yield (Fusarium fungi [2]; treatment date 10.6.) [%] | ZEA content of the grains (Fusarium fungi [2]; treatment date 19.6.) [%] | Infection (ears infected by Fusarium fungi) (Fusarium fungi [2]; treatment date 19.6.) [%] | Grain yield (Fusarium fungi [2]; treatment date 19.6.) [%] | Inhibition of mycelium growth [3] | Inhibition of the formation of 3-acetyldeoxynivalenol (3-ADON) [3] | further results
1 | prohexadione-calcium | 23 | 78 | 98 | 32 | 51 | 105 |  |  | Content of the grains of NIV (Fusarium fungi [1]; in vivo): 75%; Content of the grains of DON (Fusarium fungi [1]; relative to untreated = 100% (22.4 mg of DON per kg of harvested grains), 50 g/ha, Jun. 7, 2004): 81%; Grain yield (Fusarium fungi [1]; relative to untreated = 100% (2.9 t/ha), 50 g/ha, Jun. 7, 2004): 109%; Infection (ears infected by Fusarium fungi) (Fusarium fungi [1]; relative to untreated = 100% (43.8% of the ears infected), 50 g/ha applied Jun. 7, 2004 at beginning of flowering, assessed Jun. 28, 2004): 91%; Reduction of infection of wheat with mildew (mildew): cannot be reduced; DON content of the grains (statement in words) (Fusarium fungi [2]; winter wheat Slade, Ulhówek 2004, no DON figures printed): reduces the DON and ZEA contents considerably
2 | C[N+](C)(C)CCCl.[Cl-] [chlormequat chloride, 2-chloroethyltrimethylammonium chloride] |  |  |  |  |  |  |  |  | Effect on the susceptibility of wheat ears to infection with Fusarium graminearum (Fusarium graminearum): no direct effect
3 | CC(C)C(O)(c1ccc(OC(F)(F)F)cc1)c1cncnc1 (centres unmarked) [flurprimidole] |  |  |  |  |  |  | only weakly | only weakly | 
4 | CC1(C)CCC(Cc2ccc(Cl)cc2)C1(O)Cn1cncn1 (centres unmarked) [metconazole, reference compound] | 53 | 18 | 108 | 33 | 18 | 110 |  |  | 
5 | COc1ccc(C(O)(c2cncnc2)C2CC2)cc1 (centres unmarked) [ancymidole] |  |  |  |  |  |  | only weakly | only weakly | 
